From patent US10828315B2 (Madrigal Pharmaceuticals, Inc., priority 2013, dated 2020) come the findings set out here.

Values joined by “and” are separate entries in the source; they are usually repeats but may differ in a detail not shown here. Identical values can stand only once. Like-named read-outs stand apart in the source and are kept apart here. Some results are limits rather than exact numbers.

Series [1] deals with HER2. The series can be described thus: HER2 degradation in BT-474 cells (Example 3, Methods 1 and 2). It is filed as cell-based, human. Summed up:
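BT-474 cells treated 24 h at 37 °C with 10-point 3-fold compound dilutions; HER2 read by in-cell immunofluorescence after paraformaldehyde fixation, signal normalized to DRAQ5 nuclear stain, EC50 from curve fit. Degradation also checked by western blot of cytosolic lysates against tubulin.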

In series [2] the test system is HER2. Put plainly: HER2 degradation assay with BT-474 cell line (Example 12, FACS). It is filed as cell-based, human.
The subject of another series is Human H3122 NSCLC cells. Put plainly: Cell viability assay (CellTiter-Glo) in H3122 cells (Example 4). The class given is cell-based. As to conditions: NCI-H3122. The procedure:
Human H3122 NSCLC cells were obtained and grown in RPMI in the presence of fetal bovine serum (10%), 2 mM L-glutamine and antibiotics (100 IU/ml penicillin and 100 μg/ml streptomycin, Sigma Aldrich.) Cells were maintained at 37° C., 5% CO2 atmosphere.
Cell viability was measured using the CellTiter-Glo® assay (Promega). In brief, cells were plated in 96-well plates in triplicate at optimal seeding density (determined empirically) and incubated at 37° C., 5% CO2 atmosphere for 24 hr prior to the addition of drug or vehicle (0.3% DMSO) to the culture medium. At the end of the assay, CellTiter-Glo was added to the wells per manufacturer's recommendation, shaken for two minutes and incubated for 10 minutes at room temperature. Luminescence (0.1 sec) was measured with a Victor II microplate reader (Perkin Elmer) and the resulting data were used to calculate cell viability, normalized to vehicle control.
Cells as described above were treated with exemplary SDC-TRAPs and their viability determined as above as well. The following table illustrates the results.
In general terms: ATP-based viability assays read luminescence as a measure of living cells.

Series [3] is described as follows: Stability in human plasma, 2 h at 37° C. (Example 5). The class given is in vitro ADME. The procedure:
(§1) SDC-TRAP-0022 and SDC-TRAP-0028 were incubated in human and mouse plasma for 2 h at 37° C. and assayed for integrity at 0.25, 0.5, 1 and 2 h. The values reported below are the remaining of the parent compound at the end of the 2 h incubation period.

Series [4] is described as follows: Stability in mouse plasma, 2 h at 37° C. (Example 5). The class given is in vitro ADME. The procedure: as §1
In another series the test system is H 3211 NSLC cells. The series can be described thus: IC50 of continuous and pulsed exposure (Examples 9 and 10). It is filed as cell-based.
Series [5] is described as follows: Mouse plasma stability protocol, up to 1 h (Examples 16-18).
Procedure: (§2) 150 ng/mL solution of SDC-TRAP-0002 in methanol was prepared using the internal standard spiking solution. This solution was used to precipitate all plasma samples in the study. 200 μL was pipetted into a 96 deepwell plate over dry ice. 10 μL of 1 mM stock in DMSO was added to a 1.5 mL microfuge tube, then 990 μL of plasma. Samples were mixed by vortex, then 50 μL of each sample was added in triplicate to a 96-well plate containing internal standard solution. This was designated the 0 hour time point sample. 250 μL of the remaining plasma sample was added to each of four 96 deepwell plates—one per time point. Samples were incubated at 37° C. with gentle shaking for 0.25, 0.5, and 1 hour. After each time point, one plate of each sample was removed from the shaker and placed on wet ice for approximately 2 minutes. 50 μL at plasma aliquots (in triplicate) were added to the deepwell plate containing internal standard solution. After the last time point was extracted, the 96 deepwell plate was vortexed, then centrifuged at 2-8° C. 150 μL of supernatant was collected and 25 μL at of water was added. Samples were mixed and analyzed by LC-MS/MS.
(§3) 990 μL mouse plasma aliquots from a common stock were spiked with 10 μL of 1 mM stock of one of seven SDC-TRAP samples identified in the table below. Each sample was mixed and divided into 250 μL aliquots, each representing time points 0, 15 minutes, 30 minutes or 1 hour. At the prescribed time point, 3×50 μL samples were each mixed with 200 μL of methanol containing internal standard and held on dry ice until all time point samples were extracted. The samples collectively were vortex mixed for 1.5 minutes at 1500 rpm, then centrifuged at 4400 rpm for 10 minutes at 8° C.
For series [6] the following is noted: mouse, plasma, 1 h, 10 µM.
Procedure: as §2, §3
In a further series the target is T1, Hsp90α (Homo sapiens, UniProt P07900).
T1 construct: purchased BPS Bioscience 50294
Put plainly: Hsp90α binding assay (fluorescence polarization, FITC-labeled geldanamycin; Example 11). Conditions: read-out: EC50 (Hsp90 binding assay). The procedure:
An Hsp90^α fluorescence assay kit from BPS Bioscience (Cat #50294) containing Hsp90 recombinant enzyme, FITC-labeled geldanamycin, assay buffer and a low binding 384-well plate was used to assay Hsp90^α binding. Dithiothreitol (DTT) (Cat # D0643) and bovine serum albumin (BSA) (Cat # A2153) were obtained from Sigma-Aldrich. Fluorescence polarization was measured using a PHERAstar microplate reader (BMG LABTECH GmbH, Orienberg, Germany.)
The compounds were diluted to 1 mM in DMSO and loaded into a compound dilution plate to make 3-fold dilutions yielding a total of 8 concentrations. […] 5 mL of Hsp90^□ binding solution was prepared having a final concentration of 7 ng/[…]binding^□, 5 nM FITC-labeled geldanamycin, 2 mM DTT and 0.1 mg/mL BSA. 49 μL of binding solution was added to each microplate well, incubated at room temperature for 1 hour, then read using the PHERAstar microplate reader. The high control sample contained no compound plus Hsp90^α; the low control sample contained no compound and no Hsp90^α. […] The IC50 was calculated using GraphPad Prism 4 software.
(In general: Polarisation of emitted light reports the rotation of a fluorescent probe.)

Series [7] relates to human breast cancer cell line BT-474. The series can be described thus: Cytotoxicity assay (CellTiter-Glo, 72 h), BT-474. It is filed as cell-based. Conditions: BT-474, 72 hours, read-out: Cytotoxicity (IC50, nM) BT-474.
Procedure: (§4) Cytotoxicity of SDC-TRAP molecules was determined in three cancer cell lines. […] 80 μL of CellTiter-Glo was added to each well, followed by room temperature incubation in the dark for 15 minutes. Cell was determined by luminescence. IC50 was calculated using XLfit™ software.
Series [8] concerns human urinary bladder cancer cell line RT-112. Put plainly: Cytotoxicity assay (CellTiter-Glo, 72 h), RT-112. It is filed as cell-based. Conditions: RT-112, 72 hours, read-out: Cytotoxicity (IC50, nM) RT-112.
Procedure: as §4
Series [9] has as its system human urinary bladder cancer cell line SW780. Put plainly: Cytotoxicity assay (CellTiter-Glo, 72 h), SW780. It is filed as cell-based. Conditions: SW780, 72 hours, read-out: Cytotoxicity (IC50, nM) SW-780.
Procedure: as §4
The nature of series [10]: Artificial membrane permeability assay (PAMPA). Conditions: same protocol, second table. Background: The PAMPA barrier holds no transporters, so it reflects passive diffusion.
The subject of series [11] is H2AX phosphorylation, HSP70, EGFR, MET. The series can be described thus: Pharmacodynamics in CRC (HCT-116) xenograft tumors. The class given is in vivo, mouse. As to conditions: for H2AX phosphorylation: 24 hr.
For series [12], the system named is Hsp90 client proteins (EGFR, MET, CDC2), Hsp70, DNA damage markers. The series can be described thus: Pharmacodynamics in SCLC xenograft tumors. The class given is in vivo.
Series [13] in a line: Tissue distribution of ganetespib in mice bearing RERF human NSCLC xenografts. Conditions: ganetespib 50 mg/kg IV.
Source text: Tissue distribution of ganetespib in female CD-1 nu/nu mice bearing RERF human NSCLC xenografts
The subject of series [14] is human SCLC tumor xenografts. Put plainly: Antitumor activity in human SCLC tumor xenografts. As to conditions: SCLC xenografts; day 46. It is filed as in vivo, mice.
Another series relates to SK-OV-3 xenografts. The series can be described thus: Antitumor activity in SK-OV-3 ovarian cancer xenografts. It is filed as in vivo, female Balb/c nude mice. As to conditions: SDC-TRAP-0063 200 mg/kg group; irinotecan alone and with ganetespib. The procedure: This model is sensitive to HSP90 inhibition.
However, once the dosing is discontinued all but 200 mg/kg of SDC-TRAP-0063 dose group maintained tumor growth inhibition for a prolonged period of time.

Series [15] concerns HCT-116 human colorectal xenografts. As to conditions: female, BALB/cA nude, mouse, in vivo, iv.
Procedure: (§5) The cells were maintained in vitro as a monolayer culture in McCoy's 5a Medium. Fetal bovine serum was then be added to the medium. The final concentration of fetal bovine serum was 10%. Cells were cultured at 37° C. and 5% CO2. The tumor cells were routinely sub-cultured twice weekly by trypsin-EDTA treatment. Cells in an exponential growth phase were harvested and counted for tumor inoculation.
(§6) 100 18-22 g, 5-7 week old, female BALB/cA nude mice were inoculated with the HCT 116 cells (2.0×10^6, 1:1 with Matrigel) subcutaneously on the back of each animal (0.1 mL/mouse). When the average tumor volume reached about 150-250 mm^3, 60 of the inoculated mice was selected based on tumor growth and randomly grouped into 6 treatment groups (10 mice per group) according to the following table.
(§7) The administrations were made with 27-gauge IV needle.
(§8) During the treatment period, the implanted tumors were measured by caliper twice per week. The tumors were measured for the maximum width (X) and length (Y) and the tumor volumes (V) were calculated using the formula: V=(X^2Y)/2. The differences in the tumor volume between the control and treatment groups were analyzed for significance using the unpaired two-tailed Student's t-test. P<0.05 was considered to be statistically significant. The animal body weights were also weighed and recorded twice per week.
Series [16] has the same test system. The series can be described thus: Mouse xenograft efficacy in HCT-116 colon cancer model. As to conditions: mouse, in vivo.
Procedure: as §5, §6, §7, §8
[17] abbreviates: SCLC xenograft tumors, 24 hrs after drug exposure.

Consider `CCc1c2c(nc3ccc(OC(=O)N(C)CCn4ccc5cc(-n6c(O)nnc6-c6cc(C(C)C)c(O)cc6O)ccc54)cc13)-c1cc3c(c(=O)n1C2)COC(=O)C3(O)CC` (stereo not drawn) [SDC-TRAP-0022, 4,11-diethyl-4-hydroxy-3,14-dioxo-3,4,12,14-tetrahydro-1H-pyrano[3′,4′:6,7]indolizino[1,2-b]quinolin-9-yl (2-(5-(3-(2,4-dihydroxy-5-isopropylphenyl)-5-hydroxy-4H-1,2,4-triazol-4-yl)-1H-indol-1-yl)ethyl)(methyl)carbamate], for which the IC50 was > 5000 nM in the series with HER2 [1]; > 5000 nM with HER2 [2]; 492 nM in the series with Human H3122 NSCLC cells; > 3000 nM with H 3211 NSLC cells (1 h, read-out: IC50, 1h-pulse/71h-compound free, 7.5 × 10^3 cells/well, two replicate columns); > 3000 nM with H 3211 NSLC cells (read-out: IC50, 1h-pulse/71h-compound free, 7.5 × 10^3 cells/well, two replicate columns); 193 nM and 823 nM and 460 nM with H 3211 NSLC cells (read-out: IC50, 72h-continuous, 7.5 × 10^3 cells/well, three replicate columns). Also, the “% Remaining 2 h (37° C.), HU” value in series [3] (human plasma, 1 μM) came to 29%; in series [3] (human plasma, 10 μM), 30%. The “% Remaining 2 h (37° C.), MO” value in series [4] (mouse plasma, 1 μM) came out at 32%; in series [4] (mouse plasma, 10 μM), 31%. Further, in [5] (% Remaining of parent after 1 h incubation in mouse plasma at 37° C. (10 μM)), the “% Remaining (1 h)” value is 21.0%. Moreover, the “% Remaining (1 h, 37° C.)” value in series [5] (mouse plasma, 1 h, 37° C.) is reported as 21%.

In the series with Human H3122 NSCLC cells, `CCc1c2c(nc3ccc(OCC(=O)N(C)CCOCCn4ccc5cc(-n6c(O)nnc6-c6cc(C(C)C)c(O)cc6O)ccc54)cc13)-c1cc3c(c(=O)n1C2)COC(=O)C3(O)CC` (stereo not drawn) [SDC-TRAP-0028, 2-((4,11-diethyl-4-hydroxy-3,14-dioxo-3,4,12,14-tetrahydro-1H-pyrano[3′,4′: 6,7]indolizino[1,2-b]quinolin-9-yl)oxy)-N-(2-(2-(5-(3-(2,4-dihydroxy-5-isopropylphenyl)-5-hydroxy-4H-1,2,4-triazol-4-yl)-1H-indol-1-yl)ethoxy)ethyl)-N-methylacetamide] yielded an IC50 of 909 nM. Also, the “% Remaining 2 h (37° C.), HU” value is 51% in series [3] (human, plasma, 2 h, 1 μM) and 65% in series [3] (human, plasma, 2 h, 10 μM). For the same compound, the “% Remaining 2 h (37° C.), MO” value is reported as 53% in series [4] (mouse, plasma, 2 h, 1 μM) and 47% in series [4] (mouse, plasma, 2 h, 10 μM). The “% Remaining (1 h)” value in series [6] came to 40.9%. The “% Remaining (1 h, 37° C.)” value in [6] amounted to 41%.

The EC50 is the concentration that produces a half-maximal response. Take `CCNC(=O)c1nnc(-c2cc(C(C)C)c(O)cc2O)n1-c1ccc(Oc2ccc(C(=O)N[C@H]3C[C@H](O[C@H]4C[C@](O)(C(=O)CO)Cc5c(O)c6c(c(O)c54)C(=O)c4c(OC)cccc4C6=O)O[C@@H](C)[C@H]3O)cc2)cc1` [SDC-TRAP-0199, 5-(2,4-dihydroxy-5-isopropylphenyl)-N-ethyl-4-(4-(4-(((2S,3 S,4S,6R)-3-hydroxy-2-methyl-6-(((1S,3S)-3,5,12-trihydroxy-3-(2-hydroxyacetyl)-10-methoxy-6,11-dioxo-1,2,3,4,6,11-hexahydrotetracen-1-yl)oxy)tetrahydro-2H-pyran-4-yl)carbamoyl)phenoxy)phenyl)-4H-1,2,4-triazole-3-carboxamide]: the IC50 in the series with HER2 [2] (BT-474 cells, overnight) is > 10000 nM; in series [7], 29 nM; in series [8], 29 nM; in series [9] it was 2300 nM. Also, at Hsp90α, the EC50 amounted to 136 nM.

Take `CCNC(=O)c1nnc(-c2cc(C(C)C)c(O)cc2O)n1-c1ccc(OC2CCN(c3cnc(C(=O)N[C@H]4C[C@H](O[C@H]5C[C@](O)(C(=O)CO)Cc6c(O)c7c(c(O)c65)C(=O)c5c(OC)cccc5C7=O)O[C@@H](C)[C@H]4O)cn3)CC2)cc1` [SDC-TRAP-0200, 5-(4-(4-(3-(2,4-dihydroxy-5-isopropylphenyl)-5-(ethylcarbamoyl)-4H-1,2,4-triazol-4-yl)phenoxy)piperidin-1-yl)-N-((2S,3S,4S,6R)-3-hydroxy-2-methyl-6-(((1S,3S)-3,5,12-trihydroxy-3-(2-hydroxyacetyl)-10-methoxy-6,11-dioxo-1,2,3,4,6,11-hexahydrotetracen-1-yl)oxy)tetrahydro-2H-pyran-4-yl)pyrazine-2-carboxamide]: the IC50 was > 10000 nM with HER2 [2] (BT-474 cells, overnight); 32 nM in [7]; 16 nM in series [8]; 651 nM in series [9]. Besides, the EC50 at Hsp90α is 253 nM. The “Mass Retention” value in [10] is reported as 10.6%.

`CC(C)c1cc(-c2n[nH]c(=O)n2-c2ccc3c(ccn3C)c2)c(O)cc1O` [ganetespib, reference compound]: the H2AX phosphorylation entry in series [11] (HCT-116 tumors) is listed as “induces H2AX phosphorylation”. Moreover, the “HSP70 and Hsp90 client protein (EGFR, MET) expression” value in [11] (HCT-116 tumors, 24 hr exposure) is “induces HSP70 expression and reduces the level of EGFR and MET compared to vehicle”. Also, in [12] (setting [17]), the “Hsp90 client proteins (EGFR, MET, CDC2) and Hsp70 expression” value is “Hsp90 clients EGFR, MET and CDC2 are diminished”; the “markers for DNA damage (acetyl-histone H3, p53, p-H2AX)” value is “increases p-H2AX but has negligible effects on p53 and histone H3”. The plasma concentration result in series [13] (DRD, 24 hr) is “<LLOQ”. Besides, the “mean concentration in plasma relative to RBC” value in series [13] (5 min) was “about 10 times”. For the same compound, the “persistence in tumor versus plasma and other tissues” value in [13] (up to 24 hr) is recorded as “persist longer in tumor than in plasma or any other tissues studied”.

With `CCc1c2c(nc3ccc(OC(=O)N4CCC(N5CCCCC5)CC4)cc13)-c1cc3c(c(=O)n1C2)COC(=O)[C@]3(O)CC` [irinotecan, reference compound], in series [14], the mice found dead is 1/8. Also, the H2AX phosphorylation entry in series [11] (HCT-116 tumors) was “stimulate H2AX phosphorylation at 24 hr”. For the same compound, the “kinetics of H2AX phosphorylation” value in series [11] (HCT-116 xenograft tumors) is “maximally induced at 4 hr and stable at 24 hr”. For the same compound, the “kinetics of acetyl-histone H3 induction” value in series [12] (SCLC xenograft tumors, 24, 72 and 96 hrs) is on record as “maximal induction of acetyl-histone H3 by 24 hr”. Further, the “antitumor activity in SK-OV-3 xenografts (FIG. 25)” value in the series with SK-OV-3 xenografts is on record as “statistically significant inhibitory impact on the growth of SK-OV-3 xenografts”. For the same compound, the “% Remaining (1 h)” value in series [6] is listed as 32.5%. In addition, in series [15], the “animal death during the treatment” value is 20-30%. Further, the “antitumor activity in HCT-116 xenografts (FIG. 23)” value in [16] is “significantly inhibited the growth of HCT-116 human colorectal xenografts”.
